Molecular target: T1, Recombinant mouse FAP (Mus musculus, UniProt P97321)
T1 construct: purchased R&D systems 8647-SE
T1 sequence (P97321 1-761): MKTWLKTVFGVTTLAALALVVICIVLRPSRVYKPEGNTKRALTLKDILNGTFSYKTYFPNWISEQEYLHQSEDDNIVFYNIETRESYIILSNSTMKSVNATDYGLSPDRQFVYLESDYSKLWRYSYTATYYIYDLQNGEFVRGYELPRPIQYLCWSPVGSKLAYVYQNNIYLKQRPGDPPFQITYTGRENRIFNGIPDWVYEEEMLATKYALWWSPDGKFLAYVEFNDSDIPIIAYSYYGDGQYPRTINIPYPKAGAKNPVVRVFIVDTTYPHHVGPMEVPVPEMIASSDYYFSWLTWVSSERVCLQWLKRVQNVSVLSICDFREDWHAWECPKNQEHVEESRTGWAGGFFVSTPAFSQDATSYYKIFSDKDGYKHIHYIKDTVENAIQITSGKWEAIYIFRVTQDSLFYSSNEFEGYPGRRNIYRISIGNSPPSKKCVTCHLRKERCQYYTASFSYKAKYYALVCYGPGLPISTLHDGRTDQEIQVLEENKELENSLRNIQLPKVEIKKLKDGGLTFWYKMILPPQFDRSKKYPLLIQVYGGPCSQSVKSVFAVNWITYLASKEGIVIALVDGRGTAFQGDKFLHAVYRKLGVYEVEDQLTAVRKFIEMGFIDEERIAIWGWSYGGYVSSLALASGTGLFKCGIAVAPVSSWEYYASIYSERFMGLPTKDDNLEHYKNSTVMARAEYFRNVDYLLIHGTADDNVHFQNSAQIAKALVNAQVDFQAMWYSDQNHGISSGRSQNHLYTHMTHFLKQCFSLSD
Experiment: FRET-based FAP protease activity assay (mouse)
Assay type: biochemical
Details: FRET-peptide substrate, 37°C
Procedure: In order to determine the inhibitory activity a FRET-based FAP protease activity assay was established.
25 µL of a 30 µM substrate solution, diluted in assay buffer, was added. […] Four parameter logistic (4PL) curve fitting and pIC50 calculations were performed using ActivityBase software.

pIC50 (mouseFAP)	Compound
8.9	O=C(O)CN1CCN(CC(=O)O)CCN(CC(=O)N2CCN(CCNC(=O)c3cccc(-c4ccc5c(C(=O)NCC(=O)N6CCC[C@H]6C(=O)c6nc7ccccc7o6)ccnc5c4)c3)CC2)CCN(CC(=O)O)CC1 [drawing 352]
8.1	O=C(O)CN1CCN(CC(=O)O)CCN(CC(=O)N2CCN(CCNC(=O)c3ccc(-c4ccc5nccc(C(=O)NCC(=O)N6CCC[C@H]6C(=O)c6nc7ccccc7o6)c5c4)cc3)CC2)CCN(CC(=O)O)CC1 [drawing 354]
8.8	N#C[C@@H]1CC(F)(F)CN1C(=O)CNC(=O)c1cc[n+]([O-])c2ccc(OCCCN3CCN(C(=O)CN4CCN(CC(=O)O)CCN(CC(=O)O)CCN(CC(=O)O)CC4)CC3)cc12
8.5	O=C(O)CN1CCN(CC(=O)O)CCN(CC(=O)N2CCN(CCCOc3ccc4nccc(C(=O)NCC(=O)N5CCC[C@H]5C(=O)c5nc6ccccc6o5)c4c3)CC2)CCN(CC(=O)O)CC1 [drawing 357]
7.8	O=C(O)CN1CCN(CC(=O)O)CCN(CC(=O)N2CCN(CCNC(=O)c3ccc(-c4ccc5nccc(C(=O)NCC(=O)N6CCC[C@H]6C(=O)c6nc7ccccc7o6)c5c4)cn3)CC2)CCN(CC(=O)O)CC1 [drawing 361]
8.7	O=C(O)CN1CCN(CC(=O)O)CCN(CC(=O)NCCCNC(=O)c2ccc(-c3ccc4nccc(C(=O)NCC(=O)N5CCC[C@H]5C(=O)c5nc6ccccc6o5)c4c3)cc2)CCN(CC(=O)O)CC1
8.6	O=C(O)CN1CCN(CC(=O)O)CCN(CC(=O)N2CCN(CCNC(=O)c3cccc(-c4ccc5nccc(C(=O)NCC(=O)N6CCC[C@H]6C(=O)c6nc7ccccc7o6)c5c4)c3)CC2)CCN(CC(=O)O)CC1 [drawing 353]
7.9	O=C(O)CN1CCN(CC(=O)O)CCN(CC(=O)N2CCN(CCNC(=O)c3ccc(-c4ccc5nccc(C(=O)NCC(=O)N6C[C@@H](F)C[C@H]6C(=O)c6nc7ccccc7o6)c5c4)cc3)CC2)CCN(CC(=O)O)CC1 [drawing 360]
8.3	O=C(O)CN1CCN(CC(=O)O)CCN(CC(=O)N2CCN(CCCOc3ccc4nccc(C(=O)NCC(=O)N5CC(F)(F)C[C@H]5C(=O)c5nc6ccccc6o5)c4c3)CC2)CCN(CC(=O)O)CC1

Compound	pIC50 (mouseFAP)
O=C(O)CN1CCN(CC(=O)O)CCN(CC(=O)N2CCN(CCNC(=O)c3ccc(-c4ccc5c(C(=O)NCC(=O)N6CCC[C@H]6C(=O)c6nc7ccccc7o6)ccnc5c4)cc3)CC2)CCN(CC(=O)O)CC1 [drawing 355]	8.8
N#C[C@@H]1CCCN1C(=O)CNC(=O)c1ccnc2ccc(-c3ccc(C(=O)NCCCNC(=O)CN4CCN(CC(=O)O)CCN(CC(=O)O)CCN(CC(=O)O)CC4)cc3)cc12	9
N#C[C@@H]1CC(F)(F)CN1C(=O)CNC(=O)c1ccnc2ccc(-c3ccc(C(=O)NCCCNC(=O)CN4CCN(CC(=O)O)CCN(CC(=O)O)CCN(CC(=O)O)CC4)cc3)cc12	9.2
O=C(O)CN1CCN(CC(=O)O)CCN(CC(=O)N2CCN(CCCOc3ccc4nccc(C(=O)NCC(=O)N5C[C@@H](F)C[C@H]5C(=O)c5nc6ccccc6o5)c4c3)CC2)CCN(CC(=O)O)CC1 [drawing 358]	8.5
N#C[C@@H]1CC(F)(F)CN1C(=O)CNC(=O)c1ccnc2ccc(-c3ccc(C(=O)NCCN4CCN(C(=O)CN5CCN(CC(=O)O)CCN(CC(=O)O)CCN(CC(=O)O)CC5)CC4)cc3)cc12	8.9
N#C[C@@H]1CC(F)(F)CN1C(=O)CNC(=O)c1ccnc2ccc(-c3ccc(C(=O)NCCCNC(=O)CN4CCN(CC(=O)O)CCN(CC(=O)O)CCN(CC(=O)O)CC4)nc3)cc12	8.8
O=C(O)CN1CCN(CC(=O)O)CCN(CC(=O)NCCCNC(=O)c2ccc(-c3ccc4nccc(C(=O)NCC(=O)N5CCC[C@H]5B(O)O)c4c3)cc2)CCN(CC(=O)O)CC1	8.5
N#C[C@@H]1CC(F)(F)CN1C(=O)CNC(=O)c1ccnc2ccc(-c3ccc(S(=O)(=O)CCCNC(=O)CN4CCN(CC(=O)O)CCN(CC(=O)O)CCN(CC(=O)O)CC4)cc3)cc12	9

Same assay, conditions: FRET-peptide substrate, 37°C, read-out: pIC50 (mouseFAP) (converted)

IC50 [nM]	Compound
2	O=C(NCC(=O)N1CCC[C@H]1C(=O)c1nc2ccccc2o1)c1ccnc2ccccc12
3.98	CC(C)(C)c1nnc(C(=O)[C@@H]2CCCN2C(=O)CNC(=O)c2ccnc3ccccc23)o1
0.794	CS(=O)(=O)c1ccc(-c2ccc3nccc(C(=O)NCC(=O)N4CC(F)(F)C[C@H]4C#N)c3c2)cc1

Compound	IC50 [nM]
CS(=O)(=O)c1cccc(-c2ccc3nccc(C(=O)NCC(=O)N4CC(F)(F)C[C@H]4C#N)c3c2)c1 [drawing 288]	1
CS(=O)(=O)c1cccc(-c2ccc3c(C(=O)NCC(=O)N4CC(F)(F)C[C@H]4C#N)ccnc3c2)c1 [drawing 289]	1.26
